From patent publication US9994587B2, “HIV protease inhibitors” (priority 2014, dated 2018)

Molecular target: T1, wildtype HIV-1 protease (Human immunodeficiency virus type 1 group M subtype B, UniProt P04585)
T1 construct: preincubated with the HIV-1 protease (wild type) enzyme in assay buffer; made in house; host or cells: Escherichia coli
Assay: Assay for inhibition of microbial expressed HIV protease (Pepcleav)
Assay type: biochemical
Details: wild type HIV-1 protease 20 pM, peptide substrate 400 micromolar, pH 5.5; mean of at least two independent experiments
Summary of the method: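 E. coli-expressed enzyme preincubated with inhibitor 30 min at room temperature in 50 mM sodium acetate pH 5.5, 100 mM NaCl, 0.1% BSA, then 400 micromolar peptide substrate added with 20 picomolar protease (final), 1 h at 30° C. Product quantified by LC-MS/MS peak area after formic acid/indinavir quench.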

Compared with `COC(=O)N[C@H](C(=O)Nc1c(CC[C@@H]2CNC[C@@H](COc3ccc(C#N)cc3)O2)cc[nH]c1=O)C(c1ccccc1)c1ccccc1` [Example 86, N-[4-(2-{(2R,6S)-6-[(4-cyanophenoxy)methyl]morpholin-2-yl}ethyl)-2-oxo-1,2-dihydropyridin-3-yl]-Nα-(methoxycarbonyl)-β-phenyl-L-phenylalaninamide], `COC(=O)N[C@H](C(=O)Nc1c(F)cccc1CC[C@@H]1CNC[C@@H](COc2ccc(C#N)cc2)O1)C(c1ccccc1)c1ccccc1` [Example 76, N-[2-(2-{(2R,6S)-6-[(4-cyanophenoxy)methyl]morpholin-2-yl}ethyl)-6-fluorophenyl]-Nα-(methoxycarbonyl)-β-phenyl-L-phenylalaninamide] is 2.2-fold higher in IC50: 4.1 nM for the first, 9.1 nM for the second.

`N[C@H](C(=O)Nc1cncc(F)c1CC[C@@H]1CNC[C@@H](COC(=O)NCc2ccc(F)cc2)O1)C(c1ccc(F)cc1)c1ccc(F)cc1` [Example 125, 4-fluoro-N-(5-fluoro-4-{2-[(2R,6S)-6-({[(4-fluorobenzyl)carbamoyl]oxy}methyl)morpholin-2-yl]ethyl}pyridin-3-yl)-β-(4-fluorophenyl)-L-phenylalaninamide] and `N[C@H](C(=O)Nc1cncc(F)c1CC[C@@H]1CNC[C@@H](COC(=O)NCC(F)(F)F)O1)C(c1ccc(F)cc1)c1ccc(F)cc1` [Example 123, 4-fluoro-β-(4-fluorophenyl)-N-(5-fluoro-4-{2-[(2R,6S)-6-({[(2,2,2-trifluoroethyl)carbamoyl]oxy}methyl)morpholin-2-yl]ethyl}pyridin-3-yl)-L-phenylalaninamide] are within 1.5-fold of each other in IC50: 15 nM for the first, 16 nM for the second.

Compared with `COC(=O)N[C@H](C(=O)Nc1ccccc1CC[C@@H]1CNC[C@@H](COc2ccc(Br)cc2)O1)C(c1ccccc1)c1ccccc1` [Example 9, methyl N-[(1S)-1-benzhydryl-2-[[2-[2-[(2R,6S)-6-[(4-bromophenoxy)methyl]morpholin-2-yl]ethyl]phenyl]amino]-2-oxo-ethyl]carbamate], `COC(=O)N[C@H](C(=O)Nc1ccccc1CC[C@@H]1CNC[C@@H](COc2ccc(-n3ccnc3)cc2)O1)C(c1ccccc1)c1ccccc1` [Example 108, N-(2-{2-[(2R,6S)-6-{[4-(1H-imidazol-1-yl)phenoxy]methyl}morpholin-2-yl]ethyl}phenyl)-Nα-(methoxycarbonyl)-β-phenyl-L-phenylalaninamide] is 2.1-fold higher in IC50: 18 nM for the first, 37 nM for the second.

`COC(=O)N[C@H](C(=O)Nc1cnccc1CC[C@@H]1CNC[C@@H](COc2ccc(C#N)cc2)O1)C(c1ccccc1)c1ccccc1` [Example 81, N-[4-(2-{(2R,6S)-6-[(4-cyanophenoxy)methyl]morpholin-2-yl}ethyl)pyridin-3-yl]-Nα-(methoxycarbonyl)-β-phenyl-L-phenylalaninamide] and `COC(=O)N[C@H](C(=O)Nc1ccc(F)cc1CC[C@@H]1CNC[C@@H](COc2ccc(C#N)cc2)O1)C(c1ccccc1)c1ccccc1` [Example 75, N-[2-(2-{(2R,6S)-6-[(4-cyanophenoxy)methyl]morpholin-2-yl}ethyl)-4-fluorophenyl]-Nα-(methoxycarbonyl)-β-phenyl-L-phenylalaninamide] are within 1.5-fold of each other in IC50: 53 nM for the first, 46 nM for the second.

Compared with `COC(=O)N[C@H](C(=O)Nc1ccccc1CC[C@@H]1CNC[C@@H](CSc2ncnc3c2cnn3C)O1)C(c1ccccc1)c1ccccc1` [Example 36, methyl N-[(1S)-1-benzhydryl-2-[[2-[2-[(2R,6S)-6-[(1-methylpyrazolo[3,4-d]pyrimidin-4-yl)sulfanylmethyl]morpholin-2-yl]ethyl]phenyl]amino]-2-oxo-ethyl]carbamate], `COC(=O)N[C@H](C(=O)Nc1ccccc1CC[C@@H]1CNC[C@@H](CSc2ccc(Cl)cc2Cl)O1)C(c1ccccc1)c1ccccc1` [Example 25, methyl N-[(1S)-1-benzhydryl-2-[[2-[2-[(2R,6S)-6-[(2,4-dichlorophenyl)sulfanylmethyl]morpholin-2-yl]ethyl]phenyl]amino]-2-oxo-ethyl]carbamate] is 1.6-fold higher in IC50: 0.93 nM for the first, 1.5 nM for the second. The first is the more potent here.

First: COC(=O)N[C@H](C(=O)Nc1ccccc1CC[C@@H]1CNC[C@@H](COc2ccc3cc[nH]c3c2)O1)C(c1ccccc1)c1ccccc1 [Example 39, N-[2-(2-{(2R,6S)-6-[(1H-indol-6-yloxy)methyl]morpholin-2-yl}ethyl)phenyl]-Na-(methoxycarbonyl)-b-phenyl-L-phenylalaninamide]
Second: COC(=O)N[C@H](C(=O)Nc1ccccc1CC[C@@H]1CNC[C@@H](COc2ccc(-c3ccncc3)cc2)O1)C(c1ccccc1)c1ccccc1 [Example 52, N-α-(methoxycarbonyl)-β-phenyl-N-(2-{2-[(2R,6S)-6-{[4-(pyridin-4-yl)phenoxy]methyl}morpholin-2-yl]ethyl}phenyl)-L-phenylalaninamide]
The IC50 of the first is 25-fold higher: 100 nM for the first, 4 nM for the second.

`COC(=O)N[C@H](C(=O)Nc1ccccc1CCC1CNC[C@@H](CSc2ccc(Cl)cc2)O1)C(c1ccccc1)c1ccccc1` (stereo partly drawn) [Example 6, methyl N-[(1S)-1-benzhydryl-2-[[2-[2-[(6S)-6-[(4-chlorophenyl)sulfanylmethyl]morpholin-2-yl]ethyl]phenyl]amino]-2-oxo-ethyl]carbamate] and `COC(=O)N[C@H](C(=O)Nc1ccccc1CC[C@@H]1CNC[C@@H](CSc2ccc(Cl)cc2)O1)C(c1ccccc1)c1ccccc1` [Example 7, methyl N-[(1S)-1-benzhydryl-2-[[2-[2-[(2R,6S)-6-[(4-chlorophenyl)sulfanylmethyl]morpholin-2-yl]ethyl]phenyl]amino]-2-oxo-ethyl]carbamate] are within 1.5-fold of each other in IC50: 1.9 nM for the first, 2 nM for the second.

First: CC(C)COC[C@@H]1CNC[C@@H](CCc2c(F)cncc2NC(=O)[C@@H](N)C(c2ccc(F)cc2)c2ccc(F)cc2)O1 [Example 132, 4-fluoro-N-[5-fluoro-4-(2-{(2R,6S)-6-[(2-methylpropoxy)methyl]morpholin-2-yl}ethyl)pyridin-3-yl]-β-(4-fluorophenyl)-L-phenylalaninamide]
Second: N#Cc1cccc(SC[C@@H]2CNC[C@@H](CCc3c(F)cncc3NC(=O)[C@@H](N)C(c3ccc(F)cc3)c3ccc(F)cc3)O2)c1 [Example 102, N-(4-{2-[(2R,6S)-6-{[(3-cyanophenyl)sulfanyl]methyl}morpholin-2-yl]ethyl}-5-fluoropyridin-3-yl)-4-fluoro-β-(4-fluorophenyl)-L-phenylalaninamide]
The IC50 of the first is 910-fold higher: 430 nM for the first, 0.47 nM for the second.

Going from `COC(=O)N[C@H](C(=O)Nc1cccnc1CC[C@@H]1CNC[C@@H](COc2cccc(C#N)c2)O1)C(c1ccccc1)c1ccccc1` [Example 113, N-[2-(2-{(2R,6S)-6-[(3-cyanophenoxy)methyl]morpholin-2-yl}ethyl)pyridin-3-yl]-Nα-(methoxycarbonyl)-β-phenyl-L-phenylalaninamide] to `COC(=O)N[C@H](C(=O)Nc1ccccc1CC[C@@H]1CNC[C@@H](CSc2cccc(C#N)c2)O1)C(c1ccccc1)c1ccccc1` [Example 24, methyl N-[(1S)-1-benzhydryl-2-[[2-[2-[(2R,6S)-6-[(3-cyanophenyl)sulfanylmethyl]morpholin-2-yl]ethyl]phenyl]amino]-2-oxo-ethyl]carbamate], the IC50 falls from 510 nM to 2.1 nM (240-fold). The second is the more potent here.

Going from `COC(=O)N[C@H](C(=O)Nc1nccnc1CC[C@@H]1CNC[C@@H](CSc2ccc(Cl)cc2)O1)C(c1ccccc1)c1ccccc1` [Example 83, methyl N-[(1S)-1-benzhydryl-2-[[3-[2-[(2R,6S)-6-[(4-chlorophenyl)sulfanylmethyl]morpholin-2-yl]ethyl]pyrazin-2-yl]amino]-2-oxo-ethyl]carbamate] to `COC(=O)N[C@@H](C(=O)Nc1ccccc1CC[C@@H]1CNC[C@@H](CSc2ccc(Cl)cc2)O1)[C@H](c1ccccc1)c1ccncc1` [Example 70, (βR)-N-(2-{2-[(2R,6S)-6-{[(4-chlorophenyl)sulfanyl]methyl}morpholin-2-yl]ethyl}phenyl)-Nα-(methoxycarbonyl)-β-pyridin-4-yl-D-phenylalaninamide], the IC50 falls from 27 nM to 0.74 nM (36-fold).

Going from `COC(=O)N[C@H](C(=O)Nc1ccccc1CCC1CNC[C@@H](CS(=O)(=O)c2ccc3ccccc3c2)O1)C(c1ccccc1)c1ccccc1` (stereo partly drawn) [Example 4, methyl N-[(1S)-1-benzhydryl-2-[[2-[2-[(6S)-6-(2-naphthylsulfonylmethyl)morpholin-2-yl]ethyl]phenyl]amino]-2-oxo-ethyl]carbamate] to `COC(=O)N[C@H](C(=O)Nc1ccccc1CC[C@@H]1CNC[C@@H](CSc2cccc(S(C)(=O)=O)c2)O1)C(c1ccccc1)c1ccccc1` [Example 23, methyl N-[(1S)-1-benzhydryl-2-[[2-[2-[(2R,6S)-6-[(3-methylsulfonylphenyl)sulfanyl-methyl]morpholin-2-yl]ethyl]phenyl]amino]-2-oxo-ethyl]carbamate], the IC50 falls from 62 nM to 0.8 nM (78-fold). The second is the more potent here.

First: COC(=O)N[C@H](C(=O)Nc1n[nH]cc1CC[C@@H]1CNC[C@@H](COc2ccc(S(C)(=O)=O)cc2)O1)C(c1ccccc1)c1ccccc1 [Example 115, Nα-(methoxycarbonyl)-N-(4-{2-[(2R,6S)-6-{[4-(methylsulfonyl)phenoxy]methyl}morpholin-2-yl]ethyl}-1H-pyrazol-3-yl)-β-phenyl-L-phenylalaninamide]
Second: COC(=O)N[C@H](C(=O)Nc1ccccc1CC[C@@H]1CNC[C@@H](c2nc3cc(C)c(C)cc3[nH]2)O1)C(c1ccccc1)c1ccccc1 [Example 112, N-(2-{2-[(2R,6S)-6-(5,6-dimethyl-1H-benzimidazol-2-yl)morpholin-2-yl]ethyl}phenyl)-Nα-(methoxycarbonyl)-β-phenyl-L-phenylalaninamide]
The IC50 of the first is 2.3-fold lower: 370 nM for the first, 850 nM for the second.

Work on `N[C@H](C(=O)Nc1cccc(F)c1CC[C@@H]1CNC[C@@H](CSc2ccc(Cl)cc2)O1)C(c1ccc(F)cc1)c1ccc(F)cc1` [Example 121, N-(2-{2-[(2R,6S)-6-{[(4-chlorophenyl)sulfanyl]methyl}morpholin-2-yl]ethyl}-3-fluorophenyl)-4-fluoro-β-(4-fluorophenyl)-L-phenylalaninamide] yielded an IC50 of 5.2 nM.
